According to the Kinase Knowledgebase extract (Sharma et al. 2016):

Legend:
PIK3CA (human) = PIK3CA (human) (UniProt P42336)
PIK3CB (Human) = PIK3CB (Human) (UniProt P42338)
Chain of PIK3CB (Human) (P42338 whole entry, looked up): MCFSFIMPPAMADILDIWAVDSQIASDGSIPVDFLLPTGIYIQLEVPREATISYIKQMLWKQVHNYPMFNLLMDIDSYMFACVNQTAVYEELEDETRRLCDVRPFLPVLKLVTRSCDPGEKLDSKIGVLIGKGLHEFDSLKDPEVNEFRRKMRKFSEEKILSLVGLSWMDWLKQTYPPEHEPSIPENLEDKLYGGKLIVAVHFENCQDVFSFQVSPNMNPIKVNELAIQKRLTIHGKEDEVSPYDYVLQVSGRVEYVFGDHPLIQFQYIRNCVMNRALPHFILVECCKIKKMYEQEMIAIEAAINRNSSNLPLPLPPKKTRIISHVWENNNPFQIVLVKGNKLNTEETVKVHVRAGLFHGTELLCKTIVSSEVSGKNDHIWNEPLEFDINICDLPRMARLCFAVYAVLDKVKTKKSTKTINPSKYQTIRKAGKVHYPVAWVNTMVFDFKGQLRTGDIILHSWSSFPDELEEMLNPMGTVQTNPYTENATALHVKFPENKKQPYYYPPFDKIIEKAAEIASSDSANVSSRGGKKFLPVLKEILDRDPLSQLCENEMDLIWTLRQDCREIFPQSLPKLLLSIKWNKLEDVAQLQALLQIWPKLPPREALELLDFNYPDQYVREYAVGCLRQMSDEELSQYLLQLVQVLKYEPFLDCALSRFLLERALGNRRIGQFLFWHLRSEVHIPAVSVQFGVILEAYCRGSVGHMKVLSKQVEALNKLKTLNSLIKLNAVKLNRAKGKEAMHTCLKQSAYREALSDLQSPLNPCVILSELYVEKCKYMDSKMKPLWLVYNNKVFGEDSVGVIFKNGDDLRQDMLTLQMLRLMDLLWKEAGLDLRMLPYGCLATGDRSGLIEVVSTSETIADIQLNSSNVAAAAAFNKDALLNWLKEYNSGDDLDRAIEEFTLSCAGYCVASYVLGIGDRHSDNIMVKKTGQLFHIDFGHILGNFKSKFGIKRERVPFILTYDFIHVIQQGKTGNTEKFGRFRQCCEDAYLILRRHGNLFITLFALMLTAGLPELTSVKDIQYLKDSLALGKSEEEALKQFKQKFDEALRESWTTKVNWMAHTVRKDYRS

Chain of PIK3CA (human) (P42336 whole entry, looked up): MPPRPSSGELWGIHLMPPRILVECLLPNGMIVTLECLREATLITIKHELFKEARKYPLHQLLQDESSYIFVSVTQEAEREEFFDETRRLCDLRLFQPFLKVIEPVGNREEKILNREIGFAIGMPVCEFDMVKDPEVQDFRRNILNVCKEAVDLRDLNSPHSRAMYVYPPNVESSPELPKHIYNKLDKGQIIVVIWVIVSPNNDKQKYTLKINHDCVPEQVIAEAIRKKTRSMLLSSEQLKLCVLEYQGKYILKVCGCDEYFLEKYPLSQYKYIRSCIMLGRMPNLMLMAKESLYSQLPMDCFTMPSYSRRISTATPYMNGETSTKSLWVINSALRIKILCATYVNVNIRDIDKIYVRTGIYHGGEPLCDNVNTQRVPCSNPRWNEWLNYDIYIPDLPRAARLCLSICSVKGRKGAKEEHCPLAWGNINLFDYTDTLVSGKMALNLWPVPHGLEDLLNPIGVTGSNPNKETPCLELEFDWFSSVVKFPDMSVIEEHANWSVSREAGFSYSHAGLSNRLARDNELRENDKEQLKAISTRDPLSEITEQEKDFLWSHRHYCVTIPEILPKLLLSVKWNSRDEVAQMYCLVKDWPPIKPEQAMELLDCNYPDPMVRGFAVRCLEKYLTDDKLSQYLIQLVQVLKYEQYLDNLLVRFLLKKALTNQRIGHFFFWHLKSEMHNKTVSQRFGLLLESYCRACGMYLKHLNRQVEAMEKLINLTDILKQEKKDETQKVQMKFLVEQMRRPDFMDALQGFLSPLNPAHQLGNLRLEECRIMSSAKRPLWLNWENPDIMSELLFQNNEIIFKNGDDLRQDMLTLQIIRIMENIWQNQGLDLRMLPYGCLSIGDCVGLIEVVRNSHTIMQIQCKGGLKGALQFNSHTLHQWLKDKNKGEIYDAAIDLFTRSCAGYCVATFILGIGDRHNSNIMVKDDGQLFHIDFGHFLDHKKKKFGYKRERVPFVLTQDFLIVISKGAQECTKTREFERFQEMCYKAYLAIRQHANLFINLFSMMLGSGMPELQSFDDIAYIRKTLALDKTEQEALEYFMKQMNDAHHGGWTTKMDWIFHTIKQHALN

Compound: Cc1ccc(S(=O)(=O)NCC(C)(C)O)cc1-c1cnc(N)c(-c2cnc(C3CC3)o2)c1
- IC50 (PIK3CA (human)): 280 nM
- IC50 (PIK3CB (Human)): 1300 nM
